Values quoted from earlier work, collected in the PKSmart pharmacokinetics tables (Seal et al. 2025).

Assays:
[1] = not given per row; by the article one of three: Lombardo et al. 2013, J Clin Pharmacol 53:178, doi 10.1177/0091270012440282; 'New Drugs at FDA', novel drug approvals for 2021 and 2022 (the article's reference 43); Yap, Li, Chen 2006, J Mol Graph Model 24:383, doi 10.1016; conditions: human; for clearance / Vd / half-life: in vivo; for fraction unbound: plasma
[2] = Lombardo et al. 2013, J Clin Pharmacol 53:178, doi 10.1177/0091270012440282; conditions: for Vd / clearance: in vivo, iv; for fraction unbound: plasma
[3] = Lombardo, Berellini, Obach 2018, Drug Metab Dispos 46:1466, doi 10.1124/dmd.118.082966; conditions: human; for MRT / Vd / clearance / half-life: in vivo, iv; for fraction unbound: plasma

C=CCc1ccccc1OC[C@H](O)CNC(C)C
clearance [1]: 6.47 mL/min/kg

OCCOCCN1CCN(C2=Nc3ccccc3Sc3ccccc32)CC1
clearance [1]: 19.1 mL/min/kg

CCCC[C@](C)(O)C/C=C\[C@H]1C(CCCCCCC(=O)OC)C(=O)C[C@@H]1O (stereo not given in full)
clearance [1]: 240 mL/min/kg

Oc1ccc2c(c1)C13CCCC[C@@]1(O)[C@H](C2)N(CC1CCC1)CC3
clearance [1]: 40 mL/min/kg

O=c1[nH]c2ccccc2n1C1CCN(CCCC(c2ccc(F)cc2)c2ccc(F)cc2)CC1
clearance [1]: 4.1 mL/min/kg

CN1CCC(COc2cnc(-c3cccc(Cn4nc(-c5cccc(C#N)c5)ccc4=O)c3)nc2)CC1
fraction unbound [1]: 0.02

C[C@H]1CN(C2CCC(C#N)(c3ccc(F)cc3)CC2)CC[C@]1(C(=O)O)c1ccccc1 (stereo not given in full)
clearance [1]: 0.43 mL/min/kg

CCOC(=O)NC1=C(N2CC2)C(=O)C(NC(=O)OCC)=C(N2CC2)C1=O
clearance [1]: 11 mL/min/kg

C[C@]12C=CC(=O)C=C1CC[C@H]1[C@@H]3C[C@@H](O)[C@](O)(C(=O)CO)[C@@]3(C)C[C@@H](O)[C@@]12F
clearance [1]: 13.1 mL/min/kg

CCN(CC)C(=O)N[C@H]1C[C@@H]2c3cccc4[nH]cc(c34)C[C@H]2N(C)C1
clearance [1]: 16 mL/min/kg

C=C/C=C/C[C@@H](C)[C@@H](O)C1C(=O)NC(CC)C(=O)N(C)CC(=O)N(C)C(CC(C)C)C(=O)NC(C(C)C)C(=O)N(C)C(CC(C)C)C(=O)NC(C)C(=O)NC(C)C(=O)N(C)C(CC(C)C)C(=O)N(C)C(CC(C)C)C(=O)N(C)C(C(C)C)C(=O)N1C (stereo not given in full)
Vd [1]: 35.9 L/kg
clearance [1]: 17.7 mL/min/kg
half-life [1]: 30 h
fraction unbound [1]: 0.03

CCN1CC(C(=O)O)C(=O)c2ccc(-c3ccncc3)cc21 (stereo not given)
clearance [1]: 2 mL/min/kg

C=C[C@H](N)CCC(=O)O
clearance [1]: 0.74 mL/min/kg

CN1CCC[C@@H](n2nc(Cc3ccc(Cl)cc3)c3ccccc3c2=O)CC1
clearance [1]: 8.33 mL/min/kg

CN1CCN(/C=C2/N=C3CN=C(c4ccccc4Cl)c4cc([N+](=O)[O-])ccc4N3C2=O)CC1
clearance [1]: 5.09 mL/min/kg

CO[C@]1(NC(=O)Cc2cccs2)C(=O)N2C(C(=O)O)=C(COC(N)=O)CS[C@@H]21
clearance [1]: 2.89 mL/min/kg

CSc1ccc(OCc2ncc([N+](=O)[O-])n2C)cc1
fraction unbound [1]: 0.02

COc1ccc2c3c1O[C@@H]1[C@@H](O)C=C[C@@H]4[C@H](C2)N(C)CC[C@]341
clearance [1]: 11 mL/min/kg

Cc1c(OCC(F)(F)F)ccnc1C[S@@+](O)c1nc2ccccc2[n-]1
clearance [1]: 6.23 mL/min/kg

Nc1nc(F)nc2c1ncn2[C@@H]1O[C@@H](COP(=O)(O)O)[C@@H](O)[C@@H]1O
clearance [1]: 3.7 mL/min/kg

Cc1nc(C)c2c(n1)N(Cc1ccc(-c3ccccc3-c3nnn[nH]3)cc1)C(=O)CC2
clearance [1]: 7.17 mL/min/kg

CCC[C@H]1CC(C(=O)N[C@@H]([C@H]2O[C@@H](SC)[C@H](O)[C@@H](O)[C@@H]2O)[C@H](C)O)N(C)C1 (stereo not given in full)
clearance [1]: 1.98 mL/min/kg

CC(CO)(CO)NCc1cc2c3ccccc3ccc2c2ccccc12
clearance [1]: 8.44 mL/min/kg

CN1CCC[C@@H]1c1cccnc1
clearance [1]: 18.5 mL/min/kg

CO[C@]1(NC(=O)C(C(=O)O)c2ccc(O)cc2)C(=O)N2C(C(=O)O)=C(CSc3nnnn3C)CO[C@@H]21 (stereo not given in full)
clearance [1]: 1.32 mL/min/kg

O=C(Cn1ccnc1[N+](=O)[O-])NCCO
clearance [1]: 1.73 mL/min/kg

C[C@@H]1c2cccc(O)c2C(=O)C2=C(O)[C@]3(O)C(=O)C(C(N)=O)=C(O)[C@H](N(C)C)[C@H]3[C@H](O)[C@H]21
clearance [1]: 0.52 mL/min/kg

COC(=O)Nc1c(N)nc(-c2nn(Cc3ccccc3F)c3ncc(F)cc23)nc1N
Vd [1]: 0.73 L/kg
clearance [1]: 0.44 mL/min/kg
half-life [1]: 30 h
fraction unbound [1]: 0.02

C=CC(=O)N1CC[C@H](n2nc(C#Cc3cc(OC)cc(OC)c3)c3c(N)ncnc32)C1
Vd [1]: 1.1 L/kg
clearance [1]: 5.56 mL/min/kg
half-life [1]: 2.9 h
fraction unbound [1]: 0.05

C[C@@H](O)C1C(=O)N2C(C(=O)O)=C(COC(N)=O)S[C@H]12 (stereo not given in full)
Vd ([2]; dog): 0.22 L/kg
clearance ([2]; dog): 7.4 mL/min/kg
fraction unbound ([2]; dog): 0.95
Vd ([2]; monkey): 0.14 L/kg
clearance ([2]; monkey): 4.65 mL/min/kg
fraction unbound ([2]; monkey): 0.56
Vd ([2]; rat): 0.05 L/kg
clearance ([2]; rat): 15.5 mL/min/kg
fraction unbound ([2]; rat): 0.5
MRT [3]: 0.54 h
Vd [3]: 0.24 L/kg
clearance [3]: 7.55 mL/min/kg
half-life [3]: 0.54 h
fraction unbound [3]: 0.72

C#C[C@]1(O)CC[C@H]2[C@@H]3CCc4cc(O)ccc4[C@H]3CC[C@@]21C
Vd ([2]; dog): 17 L/kg
clearance ([2]; dog): 25 mL/min/kg
Vd ([2]; monkey): 7.2 L/kg
clearance ([2]; monkey): 36 mL/min/kg
fraction unbound ([2]; monkey): 0.0099
Vd ([2]; rat): 5.7 L/kg
clearance ([2]; rat): 55 mL/min/kg
fraction unbound ([2]; rat): 0.0088
MRT [3]: 11 h
Vd [3]: 4.3 L/kg
clearance [3]: 7 mL/min/kg
half-life [3]: 9.7 h
fraction unbound [3]: 0.014

COc1cccc([C@@]2(O)CCCC[C@@H]2CN(C)C)c1
Vd ([2]; dog): 3.01 L/kg
clearance ([2]; dog): 54.6 mL/min/kg
fraction unbound ([2]; dog): 0.745
Vd ([2]; rat): 3.86 L/kg
clearance ([2]; rat): 63.5 mL/min/kg
fraction unbound ([2]; rat): 0.75
MRT [3]: 7.2 h
Vd [3]: 2.8 L/kg
clearance [3]: 6.5 mL/min/kg
half-life [3]: 5.8 h

Nc1nc(N)c2nc(-c3ccccc3)c(N)nc2n1
Vd ([2]; rat): 2.2 L/kg
clearance ([2]; rat): 10.1 mL/min/kg
MRT [3]: 3.4 h
Vd [3]: 13 L/kg
clearance [3]: 63 mL/min/kg
half-life [3]: 4.3 h
fraction unbound [3]: 0.42

Cc1ncc([N+](=O)[O-])n1CCO
Vd ([2]; dog): 0.1 L/kg
clearance ([2]; dog): 2.5 mL/min/kg
fraction unbound ([2]; dog): 0.983
Vd ([2]; rat): 1.2 L/kg
clearance ([2]; rat): 5.8 mL/min/kg
MRT [3]: 7.8 h
Vd [3]: 0.4 L/kg
clearance [3]: 0.85 mL/min/kg
half-life [3]: 7.1 h

CCOc1ccc(NC(C)=O)cc1
Vd ([2]; dog): 0.89 L/kg
clearance ([2]; dog): 15.7 mL/min/kg
MRT [3]: 1.1 h
Vd [3]: 1.4 L/kg
half-life [3]: 0.92 h
fraction unbound [3]: 0.47

CON=C(C(=O)NC1C(=O)N2C(C(=O)O)=C(CSc3nc(C)c(CC(=O)O)s3)CS[C@H]12)c1csc(N)n1 (stereo not given in full)
Vd ([2]; dog): 0.26 L/kg
clearance ([2]; dog): 4.1 mL/min/kg
fraction unbound ([2]; dog): 0.243
Vd ([2]; monkey): 0.15 L/kg
clearance ([2]; monkey): 1.2 mL/min/kg
fraction unbound ([2]; monkey): 1
Vd ([2]; rat): 0.18 L/kg
clearance ([2]; rat): 1.1 mL/min/kg
fraction unbound ([2]; rat): 0.0097
MRT [3]: 1.5 h
Vd [3]: 0.054 L/kg
clearance [3]: 0.61 mL/min/kg
half-life [3]: 4.2 h
fraction unbound [3]: 0.18

CCCCNC(=O)NS(=O)(=O)c1ccc(C)cc1
Vd ([2]; rat): 0.13 L/kg
clearance ([2]; rat): 0.42 mL/min/kg
MRT [3]: 9.5 h
Vd [3]: 0.12 L/kg
half-life [3]: 7 h

Cc1cc(=O)n(-c2ccccc2)n1C
Vd ([2]; dog): 0.09 L/kg
clearance ([2]; dog): 6.3 mL/min/kg
fraction unbound ([2]; dog): 0.6
Vd ([2]; monkey): 0.74 L/kg
clearance ([2]; monkey): 4.6 mL/min/kg
fraction unbound ([2]; monkey): 0.908
Vd ([2]; rat): 0.81 L/kg
clearance ([2]; rat): 9.1 mL/min/kg
fraction unbound ([2]; rat): 1
MRT [3]: 20 h
Vd [3]: 0.77 L/kg
clearance [3]: 0.64 mL/min/kg
half-life [3]: 12 h

CN(C)CCc1c[nH]c2ccc(Cn3cncn3)cc12
Vd ([2]; dog): 2.5 L/kg
clearance ([2]; dog): 40 mL/min/kg
clearance ([2]; rat): 79 mL/min/kg
MRT [3]: 2 h
Vd [3]: 1.9 L/kg
clearance [3]: 16 mL/min/kg
half-life [3]: 2.2 h

CCCC(C)C1(CC)C(=O)NC(=O)NC1=O (stereo not given)
Vd ([2]; dog): 1.06 L/kg
clearance ([2]; dog): 1.3 mL/min/kg
Vd ([2]; rat): 1.64 L/kg
clearance ([2]; rat): 8.4 mL/min/kg
fraction unbound ([2]; rat): 0.5
MRT [3]: 32 h
Vd [3]: 0.91 L/kg
clearance [3]: 0.47 mL/min/kg
half-life [3]: 22 h
fraction unbound [3]: 0.39

Oc1ccc2c3c1O[C@H]1[C@@H](O)CC[C@@]4(O)[C@@H](C2)N(CC2CCC2)CC[C@]314
Vd ([2]; rat): 11 L/kg
clearance ([2]; rat): 111 mL/min/kg
MRT [3]: 3.5 h
Vd [3]: 4.6 L/kg
clearance [3]: 22 mL/min/kg
half-life [3]: 3.7 h

CCN(CCO)CCCC(C)Nc1ccnc2cc(Cl)ccc12 (stereo not given)
Vd ([2]; rat): 14.6 L/kg
clearance ([2]; rat): 28.2 mL/min/kg
fraction unbound ([2]; rat): 0.62
MRT [3]: 1300 h
Vd [3]: 700 L/kg
clearance [3]: 11 mL/min/kg
half-life [3]: 850 h
fraction unbound [3]: 0.57

CN1CCCC(n2nc(Cc3ccc(Cl)cc3)c3ccccc3c2=O)CC1 (stereo not given)
Vd ([2]; dog): 8.1 L/kg
clearance ([2]; dog): 50 mL/min/kg
fraction unbound ([2]; dog): 0.0826
Vd ([2]; rat): 1.8 L/kg
clearance ([2]; rat): 58 mL/min/kg
fraction unbound ([2]; rat): 0.1
MRT [3]: 27 h
Vd [3]: 15 L/kg
clearance [3]: 9 mL/min/kg
half-life [3]: 22 h
fraction unbound [3]: 0.17

Nc1ccn(C[C@@H](CO)OCP(=O)(O)O)c(=O)n1
Vd ([2]; monkey): 0.8 L/kg
clearance ([2]; monkey): 3.5 mL/min/kg
Vd ([2]; rat): 2 L/kg
clearance ([2]; rat): 0.7 mL/min/kg
fraction unbound ([2]; rat): 1
MRT [3]: 3.3 h
Vd [3]: 0.49 L/kg
clearance [3]: 2.5 mL/min/kg
half-life [3]: 2.6 h
